Common to all, as to format: ADME
The nature of series [1]: Clearance in human.
A short description of series [2]: Unbound clearance in human.
A short description of series [3]: Volume of distribution at steady state in human. As to conditions: read-out: Vdss.
Series [4] in a line: Unbound volume of distribution at steady state in human.
Series [5] can be described thus: AUC in human administered as single dose.
A short description of series [6]: Unbound AUC in human administered as single dose.
Series [7] is described as follows: Fraction unbound in human.
The nature of series [8]: Half life in human.
Series [9] can be described thus: AUC at steady state in human administered as single dose.
Series [10] in a line: Unbound AUC at steady state in human administered as single dose.

`OC(Cn1cncn1)(Cn1cncn1)c1ccc(F)cc1F` [FLUCONAZOLE] had a clearance in series [1] of 0.9 mL/min/kg. For the same compound, the CL free in [2] was 1 mL/min/kg. In addition, the Vd in series [3] turned out to be 0.9 L/kg. For the same compound, the fVdss in [4] is 1 L/kg. In addition, the AUC in series [5] was found to be 100000 ng·h/mL. In addition, the fAUC in series [6] stood at 90000 ng·h/mL. For the same compound, the free fraction (fraction unbound) in [7] was 0.9. In series [8], this compound gave a half-life of 32 h.

Regarding `CCC(C)n1ncn(-c2ccc(N3CCN(c4ccc(OCC5COC(Cn6cncn6)(c6ccc(Cl)cc6Cl)O5)cc4)CC3)cc2)c1=O` (stereo unspecified) [ITRACONAZOLE], the clearance in series [1] was 5.4 mL/min/kg. For the same compound, the CL free in [2] was over 2700 mL/min/kg. Further, the Vd in [3] is 11 L/kg. This compound displayed a fVdss in series [4] of over 5000 L/kg. In addition, the fraction unbound in series [7] is at most 0.002. Also, the half-life in series [8] is 23 h. The exposure (AUC) in series [9] was 23000 ng·h/mL. This compound came in with a fAUC in [10] of 50 ng·h/mL.

A word on the clearance: it is the volume of plasma or blood freed of the substance per unit of time. Read a high clearance as a high capacity for elimination. As a reminder, the AUC is concentration integrated over time. A lower AUC goes with low exposure. A word on the fraction unbound: it is the share of the substance not bound to proteins or other matrix. A higher fraction unbound goes with much free substance. One may read the half-life as the time needed for the level to fall by half in the phase considered. A low value points to rapid decline.

The record behind these values is ChEMBL document CHEMBL4665694, “Integrating the Impact of Lipophilicity on Potency and Pharmacokinetic Parameters Enables the Use of Diverse Chemical Space during Small Molecule Drug Optimization” (J Med Chem, 2020).
